Assay [1] addresses T1, ENPP-1 (Homo sapiens, UniProt P22413).
T1 construct: purchased Biovendor RD172124100
T1 sequence (P22413 1-925): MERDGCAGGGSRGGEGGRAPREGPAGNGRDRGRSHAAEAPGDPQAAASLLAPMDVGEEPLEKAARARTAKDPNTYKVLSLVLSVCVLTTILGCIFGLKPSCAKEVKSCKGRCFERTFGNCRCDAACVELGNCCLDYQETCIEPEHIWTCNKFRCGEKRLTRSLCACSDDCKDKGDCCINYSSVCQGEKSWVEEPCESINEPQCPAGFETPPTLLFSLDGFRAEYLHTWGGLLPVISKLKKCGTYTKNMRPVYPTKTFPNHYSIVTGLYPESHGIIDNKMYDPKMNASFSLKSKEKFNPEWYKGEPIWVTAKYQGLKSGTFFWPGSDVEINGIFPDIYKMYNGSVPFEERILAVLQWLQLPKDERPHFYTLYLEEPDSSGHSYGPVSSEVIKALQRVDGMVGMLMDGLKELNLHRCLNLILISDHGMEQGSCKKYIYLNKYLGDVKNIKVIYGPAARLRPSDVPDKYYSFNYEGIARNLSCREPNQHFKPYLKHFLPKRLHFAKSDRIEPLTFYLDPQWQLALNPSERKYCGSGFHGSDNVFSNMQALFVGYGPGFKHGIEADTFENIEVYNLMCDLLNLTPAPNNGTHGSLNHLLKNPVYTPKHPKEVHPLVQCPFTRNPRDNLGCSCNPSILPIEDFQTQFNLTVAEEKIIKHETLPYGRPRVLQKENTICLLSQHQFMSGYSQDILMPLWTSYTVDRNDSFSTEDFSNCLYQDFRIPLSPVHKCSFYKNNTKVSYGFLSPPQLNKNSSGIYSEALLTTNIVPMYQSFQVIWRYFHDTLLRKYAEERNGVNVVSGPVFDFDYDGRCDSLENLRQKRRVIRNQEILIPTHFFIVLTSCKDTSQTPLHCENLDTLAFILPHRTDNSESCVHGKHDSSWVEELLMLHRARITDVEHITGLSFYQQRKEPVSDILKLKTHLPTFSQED
Briefly: ENPP-1 enzyme assay with pNP-TMP substrate. It is filed as biochemical. The following applies: 12.5 ng ENPP-1, 720 μM substrate pNP-TMP, pH 9.0, 37° C., 60 minutes, absorbance 405 nm; average IC50. The protocol: In order to measure the ENPP-1 inhibitory activity of the compounds according to the present disclosure, the following tests were performed.
ENPP-1 hydrolyzes a variety of substrates, including phosphodiester bonds of nucleotides and nucleotide sugars and pyrophosphate bonds of nucleotides and nucleotide sugars. p-Nitrophenyl 5′-thymidine monophosphate (p-Nph-5′-TMP) is an artificial substrate for 5′-adenosine monophosphate (AMP), which is hydrolyzed by the human recombinant ENPP-1 enzyme. In the above reaction, ENPP-1 enzymatic activity is monitored through the formation of yellow p-nitrophenolate, which absorbs at 405 nm.
First, the reaction mixture contains 100 mM Tris-HCl (pH 9.0), 150 mM NaCl, […], and 1% DMSO. Serially diluted ENPP-1 inhibitors (test compound concentrations ranging from 10 μM to 0.5 nM) are reacted with 12.5 ng of ENPP-1 (Biovendor, catalog number RD172124100) and 720 μM substrate pNP-TMP at 37° C. for 60 minutes. All assays include a DMSO control without ENPP-1 inhibitor that gives maximum absorbance.
After 60 minutes of this reaction, the […] is measured using an Epoch™ Microplate Spectrophotometer (BioTek Instruments Inc.). Inhibition (%) is calculated using the following formula: Sample OD405 nm/Max OD405 nm×100%. % residual ENPP-1 enzyme activity versus IC50 values for ENPP-1 inhibitor concentrations were determined by fitting inhibition curves using the 4-parameter method of GraphPad Prism® software [GraphPad version 9.3.1 for Windows, GraphPad Software, La Jolla California USA, www.graphpad.com].

Assay [2] concerns the target T1, ENPP-1. Briefly: ENPP-1 enzyme assay with cGAMP substrate. It counts as biochemical. Conditions: 200 pM ENPP-1, 10 μM substrate 2′3′-cGAMP, pH 7.4, 37° C., 30 minutes, Transcreener AMP2/GMP2 kit; average IC50. The procedure: 2′3′-cGAMP is a natural substrate specifically hydrolyzed by ENPP-1, and produces 5′-adenosine monophosphate (AMP) and 5′-guanosine monophosphate (GMP). AMP and GMP produced from the reaction are monitored for ENPP-1 enzyme activity through an AMP^2/GMP^2 ENPP-1 Assay kit (Bellbrook Labs, catalog number 3015).
First, the reaction mixture contains 25 mM Tris-HCl (pH 7.4), 5 mM MgCl2, 0.01% Brij-35, and 1% DMSO. Serially diluted ENPP-1 inhibitors (test compound concentrations ranging from 10 μM to 0.5 nM) are reacted with 200 pM ENPP-1 (Biovendor, catalog number RD172124100) and 10 μM substrate 2′3′-cGAMP at 37° C. for 30 minutes. All assays include a DMSO control without ENPP-1 inhibitor that provides maximal AMP and GMP production. After 30 minutes of this reaction, AMP and GMP production is detected as a measure of ENPP-1 enzymatic activity using the Transcreener® AMP^2/GMP^2 ENPP-1 Assay kit. The detection reagent is a reagent containing 16 nM AMP^2/GMP^2 Antibody-Tb, 25 mM Tris-HCl and 60.1 nM AMP/GMP HiLyte647 Tracer, which is added by 5 μl, mixed well, and incubated at 25° C. for 2 hours.
The […] signal is measured using a SPARK Cyto plate reader (Tecan). Inhibition (%) is calculated using the following formula: (Max 615:665 ratio-615:665 ratio)/Max 615:665 ratio×100%. % residual ENPP-1 enzyme activity versus IC50 values for ENPP-1 inhibitor concentrations were determined by fitting inhibition curves using the 4-parameter method of GraphPad Prism® software [GraphPad version 9.3.1 for Windows, GraphPad Software, La Jolla California USA, www.graphpad.com].

Molecules are shown by their SMILES.

The term IC50 denotes the concentration at which inhibition is half-maximal. As for `COc1ccc2c3c(n(Cc4ccc(S(N)(=O)=O)cc4)c2c1)CCNC3` [Compound 35, 4-((7-methoxy-1,2,3,4-tetrahydro-5H-pyrido[4,3-b]indol-5-yl)methyl)benzenesulfonamide], the concentration for half-maximal inhibition (IC50) at ENPP-1 [1] is below 1000 nM; at ENPP-1 [2] it was 1000 to 10000 nM.
In the same order, the values of `COc1ccc2c(c1)c1c(n2Cc2ccc(S(N)(=O)=O)cc2)CCNC1` [Compound 36, 4-((8-methoxy-1,2,3,4-tetrahydro-5H-pyrido[4,3-b]indol-5-yl)methyl)benzenesulfonamide] are 1000 to 10000 nM and above 10000 nM.
For the compound `COc1ccc2c3c(n(Cc4ccc(S(N)(=O)=O)cc4)c2c1)CCCN3` [Compound 37, 4-((7-methoxy-1,2,3,4-tetrahydro-5H-pyrido[3,2-b]indol-5-yl)methyl)benzenesulfonamide], the values for the IC50 on ENPP-1 [1] and at ENPP-1 [2] were below 1000 nM and above 10000 nM, respectively.
In the same order, the values of `COc1ccc2c(c1)c1c(n2Cc2ccc(S(N)(=O)=O)cc2)CCCN1` [Compound 38, 4-((8-methoxy-1,2,3,4-tetrahydro-5H-pyrido[3,2-b]indol-5-yl)methyl)benzenesulfonamide] are below 1000 nM and below 1000 nM.
In the same order, the values of `COc1ccc2c(c1)c1c(n2Cc2ccc(S(N)(=O)=O)cc2)CCNC1=O` [Compound 41, 4-((8-methoxy-1-oxo-1,2,3,4-tetrahydro-5H-pyrido[4,3-b]indol-5-yl)methyl)benzene sulfonamide] are below 1000 nM and 1000 to 10000 nM.
In the same order, the values of `COc1ccc2c3c(n(Cc4ccc(S(N)(=O)=O)cc4)c2c1)CCNC3=O` [Compound 42, 4-((7-methoxy-1-oxo-1,2,3,4-tetrahydro-5H-pyrido[4,3-b]indol-5-yl)methyl)benzene sulfonamide] are below 1000 nM and below 1000 nM.
Turning to `COc1ccc2c3c(=O)[nH]ccc3n(Cc3ccc(S(N)(=O)=O)cc3)c2c1` [Compound 43, 4-((7-methoxy-1-oxo-1,2-dihydro-5H-pyrido[4,3-b]indol-5-yl)methyl)benzenesulfonamide], the IC50 against ENPP-1 [1] is below 1000 nM; at ENPP-1 [2], 1000 to 10000 nM.
On to `COc1ccc2c(c1)c1c(=O)[nH]ncc1n2Cc1ccc(S(N)(=O)=O)cc1` [Compound 44, 4-((8-methoxy-1-oxo-1,2-dihydro-5H-pyridazino[4,5-b]indol-5-yl)methyl)benzene sulfonamide], for which the IC50 against ENPP-1 [1] and at ENPP-1 [2] was below 1000 nM each time.
On to `COc1ccc2c3c(=O)[nH]ncc3n(Cc3ccc(S(N)(=O)=O)cc3)c2c1` [Compound 45, 4-((7-methoxy-1-oxo-1,2-dihydro-5H-pyridazino[4,5-b]indol-5-yl)methyl)benzene sulfonamide], for which the IC50 against ENPP-1 [1] and against ENPP-1 [2] was below 1000 nM in each case.
`COc1ccc2c3c(=O)[nH]ncc3n(Cc3ccc(S(C)(=N)=O)cc3)c2c1` (stereo not drawn) [Compound 46, 7-methoxy-5-(4-(S-methylsulfonimidoyl)benzyl)-2,5-dihydro-1H-pyridazino[4,5-b]indol-1-one]: the IC50 against ENPP-1 [1] and at ENPP-1 [2] was below 1000 nM each time.
Regarding `COc1ccc2c3cnncc3n(Cc3ccc(S(N)(=O)=O)cc3)c2c1` [Compound 47, 4-((7-methoxy-5H-pyridazino[4,5-b]indol-5-yl)methyl)benzenesulfonamide], the IC50 against ENPP-1 [1] was below 1000 nM; on ENPP-1 [2] it was 1000 to 10000 nM.
In the same order, the values of `COc1ccc2c3cncnc3n(Cc3ccc(S(N)(=O)=O)cc3)c2c1` [Compound 48, 4-((7-methoxy-9H-pyrimido[4,5-b]indol-9-yl)methyl)benzenesulfonamide] are below 1000 nM and 1000 to 10000 nM.
With `COc1ccc2c(c1)c1cccnc1n2Cc1ccc(S(N)(=O)=O)cc1` [Compound 49, 4-((6-methoxy-9H-pyrido[2,3-b]indol-9-yl)methyl)benzenesulfonamide], the IC50 on ENPP-1 [1] is below 1000 nM; on ENPP-1 [2], 1000 to 10000 nM.
In the same order, the values of `COc1ccc2c(c1)c1ncncc1n2Cc1ccc(S(N)(=O)=O)cc1` [Compound 51, 4-((8-methoxy-5H-pyrimido[5,4-b]indol-5-yl)methyl)benzenesulfonamide] are below 1000 nM and below 1000 nM.
On to `COc1ccc2c3cnccc3n(Cc3ccc(S(N)(=O)=O)cc3)c2c1` [Compound 52, 4-((7-methoxy-5H-pyrido[4,3-b]indol-5-yl)methyl)benzenesulfonamide], for which the half-maximal inhibitory concentration (IC50) on ENPP-1 [1] was below 1000 nM; on ENPP-1 [2], 1000 to 10000 nM.
On to `COc1ccc2c3ncccc3n(Cc3ccc(S(N)(=O)=O)cc3)c2c1` [Compound 53, 4-((7-methoxy-5H-pyrido[3,2-b]indol-5-yl)methyl)benzenesulfonamide], for which the IC50 on ENPP-1 [1] and on ENPP-1 [2] was below 1000 nM each time.
On to `COc1cc2c3ncccc3n(Cc3ccc(P(=O)(O)O)cc3)c2cc1F` [Compound 57, (4-((7-fluoro-8-methoxy-5H-pyrido[3,2-b]indol-5-yl)methyl)phenyl)phosphonic acid], for which the IC50 at ENPP-1 [1] and against ENPP-1 [2] was below 1000 nM in each case.
`COc1ccc2c(c1)c1ncccc1n2Cc1ccc(C(F)(F)P(=O)(O)O)cc1` [Compound 58, (difluoro (4-((8-methoxy-5H-pyrido[3,2-b]indol-5-yl)methyl)phenyl)methyl)phosphonic acid]: the IC50 was below 1000 nM against ENPP-1 [1] and 1000 to 10000 nM against ENPP-1 [2].
